# Reference: US6649565B1, “Selective herbicides on the basis of a substituted phenylsulfonylaminocarbonyltriazolinone and safeners” (Bayer Aktiengesellschaft, priority 1999, dated 2003)
# How the values were obtained:
# [1] = tested on: barley of the cultivar Coronar; assay: Post-emergence test/greenhouse, damage to crop plant barley; type: in vivo; conditions: greenhouse, after approx. 18 days
# Excerpt: (§1) The active compounds in question were used in the form of customary formulations. The sodium salt of the compound of the formula (I) was applied as 70 WG or 70 WP, mefenpyr-diethyl was applied as 100 EC and fenchlorazole-ethyl and cloquintocetmexyl were applied as a laboratory formulation of the active compound produced by ourselves. The active compounds and, if appropriate, the safeners were used to prepare an aqueous spray liquor comprising 0.1% of the additive Renex-36.
# (§2) The active compound preparation is used to spray test plants which were grown in 10×10 cm pots (growth medium: soil or vermiculte), such that the particular amounts of active compound desired are applied per unit area. The concentration of the spray liquor is chosen such that the particular amounts of active compound desired are applied in […].
# (§3) After approximately 18 days the degree of damage to the crop plants was rated in % damage in comparison with the development of the untreated control.
# (§4) 0%=no damage (like untreated control)
# (§5) 100%=total destruction/damage
# (§6) Active compounds, application rates, test plants and results are shown in the tables below, the terms used in the tables having the following meaning:
# barley=barley of the cultivar Coronar
# (§7) a.i.=active ingredient=active compound/safener
# [2] = tested on: wheat of the cultivar Orestis; assay: Post-emergence test/greenhouse, damage to crop plant wheat; type: in vivo; conditions: greenhouse, after approx. 18 days
# Excerpt: as §1, §2, §3, §4, §5, §6
# wheat=wheat of the cultivar Orestis
# as §7
smiles,measurement,setting,value
CCCOc1nn(C(=O)[N-]S(=O)(=O)c2ccccc2C(=O)OC)c(=O)n1C.[Na+],Damage barley,"[1]; Table A5, 15 g of a.i./ha",50%
same,Damage barley,"[1]; Table A5, 30 g of a.i./ha",70%
same,Damage barley,"[1]; Table A5, 60 g of a.i./ha",70%
same,Damage barley,"[1]; Table A6, 8 g of a.i./ha",50%
same,Damage barley,"[1]; Table A6, 15 g of a.i./ha",50%
same,Damage barley,"[1]; Table A6, 30 g of a.i./ha",60%
same,Damage barley,"[1]; Table A6, 60 g of a.i./ha",60%
same,Damage barley,"[1]; Table A9, 15 g of a.i./ha",50%
same,Damage barley,"[1]; Table A9, 30 g of a.i./ha",70%
same,Damage barley,"[1]; Table A9, 60 g of a.i./ha",70%
same,Damage wheat,"[2]; Table A1, 90 g of a.i./ha",20%
same,Damage wheat,"[2]; Table A1, 180 g of a.i./ha",30%
same,Damage wheat,"[2]; Table A2, 60 g of a.i./ha",20%
same,Damage wheat,"[2]; Table A2, 125 g of a.i./ha",30%
same,Damage wheat,"[2]; Table A2, 250 g of a.i./ha",50%
same,Damage wheat,"[2]; Table A3, 30 g of a.i./ha",5%
same,Damage wheat,"[2]; Table A3, 60 g of a.i./ha",10%
same,Damage wheat,"[2]; Table A3, 125 g of a.i./ha",50%
same,Damage wheat,"[2]; Table A4, 60 g of a.i./ha",30%
same,Damage wheat,"[2]; Table A4, 125 g of a.i./ha",40%
same,Damage wheat,"[2]; Table A7, 60 g of a.i./ha",20%
same,Damage wheat,"[2]; Table A7, 125 g of a.i./ha",30%
same,Damage wheat,"[2]; Table A7, 250 g of a.i./ha",50%
same,Damage wheat,"[2]; Table A8, 30 g of a.i./ha",5%
same,Damage wheat,"[2]; Table A8, 60 g of a.i./ha",10%
same,Damage wheat,"[2]; Table A8, 125 g of a.i./ha",50%
